Test: In vitro metabolism in mouse hepatocytes
Type: in vitro ADME
Procedure: The incubation of G2 and G1 with cryopreserved mouse hepatocytes was conducted according to the standard in-house protocol. Cryopreserved hepatocytes were thawed using pre-warmed InVitroGRO HT thawing medium in 50 mL centrifuge tubes. The tubes were centrifuged for 3 min at 50 × g, and the supernatants were discarded. Cells were resuspended with 50 mL of pre-warmed Dulbecco’s modified eagle medium (DMEM) by gently inverting the tube several times. The tubes were centrifuged for 3 min at 50 × g, and the supernatants were discarded. Cells were brought up in 5.0 mL of pre-warmed DMEM incubation medium. The total cell counts and the number of viable cells were determined by the trypan blue exclusion method. Incubations were carried out in 20 mL scintillation vials containing 1.0 mL of hepatocyte suspension (approximately 1.3 × 10^6 cells/mL). The mouse hepatocytes were pre-incubated with or without 1 mM ABT or 4-MP for 15 min. Vials were spiked with G2 or G1 as a DMSO stock solution to a final concentration of 5 µM G2 or G1 and a final DMSO concentration of 0.1%. The scintillation vials were placed on an orbital shaker rotating at 16 rpm in a humidified incubator at 37°C, 5% CO2. The reaction was quenched with 4 mL of acetonitrile at 0 or 3 h. The hepatocyte samples were protein precipitated with 4 volumes of acetonitrile and centrifuged at 2,000 × g for 5 min. The resulting supernatant was reduced to a dry residue and reconstituted with 350 µL water:acetonitrile (2/1; vol/vol). All samples were analyzed by LC-MS/MS system.
Liquid chromatography (LC) equipment consisted of a CBM 20A Communications Module, NexeraX2 LC 30AD pumps, NexeraX2 SIL 30AC autosampler, CTO Prominence Column Oven from Shimadzu (Columbia, MD), and a 1290 Infinity DAD ultraviolet (UV) detector with a 60 mm flow cell from Agilent Technologies (Waldbronn, Germany). The LC column was an EVO C18 (1.9 µm, 2.1 × 100 mm) from Phenomenex. Mobile phase A was water with 0.1% formic acid and mobile phase B was acetonitrile with 0.1% formic acid. The flow rate was 400 µL/min and the injection volume was 10 µL. Column temperature was 40°C. Mass spectrometry was performed using a 5600 QTRAP mass spectrometer equipped with a TurboIonSpray from Applied Biosystems (Redwood City, CA). Various tandem mass spectrometry (MS/MS) functionalities were used for analysis, which included data-dependent time-of-flight (TOF) scans in a positive ion electrospray mode. The extracted ion chromatography traces were obtained following analysis of mouse hepatocyte incubations and were used to quantify the metabolites.

Row | Compound | clearance in mouse hepatocytes | metabolism inhibited by ABT (1 mM ABT) [%] | metabolism inhibited by ABT and 4-MP (1-aminobenzotriazole (ABT) and 4-methylpyrazole (4-MP)) [%]
1 | C[C@H](Nc1ccc2ncc3c(c2c1)CCOC3)C(=O)Nc1ccc(Cl)nc1 [G1, (2S)-N-(6-chloro-3-pyridyl)-2-(2,4-dihydro-1H-pyrano[3,4-c]quinolin-9 ylamino)propanamide] | high clearance | 39 | –
2 | C[C@H](Nc1ccc2ncc(CO)cc2c1)C(=O)Nc1ccc(Cl)c(N(C)C)c1 [G2, (2S)-N-[4-chloro-3-(dimethylamino)phenyl]-2-[[3-(hydroxymethyl)-6-quinolyl]amino]propanamide] | high clearance | – | 38
